In brackets after ≈: the same amount, converted by molar mass.
Tests used:
[1] = Atovaquone solubility in pharmaceutical excipients; type: physicochemical; settings: thermodynamic from solid
Experimental: Excess atovaquone (100 mg/mL) (Molekula, Irvine, Calif.) was added to each of the following excipients: Benzyl Benzoate, Tween 20, Tween 80, PEG 200, PEG 400, Labrafac, Labrafil, Capryol, Capmul, Captex, Propylene Glycol and Isopropyl Palmitate. The mixtures were shaken at 100 RPM at 37° C. for 48 hours. Each individual sample was centrifuged at 3000 RPM for 10 minutes. The supernatant was then filtered through a 0.45 μm PTFE filter. Quantification of atovaquone content in the filtrate was performed using a Dionex HPLC (Thermo Fisher Scientific Inc., Waltham, Mass.) with an Inertsil® ODS-2 column (5 μm, 4.6×250 mm) with a mobile phase 0.1% TFA ACN: 0.1% TFA H2O (80:20) at flow rate of 2 mL/min and a run time of 10 minutes.

[2] = Atovaquone solubility in pharmaceutical excipients; type: physicochemical; settings: thermodynamic from solid; remark: listed apart in the source

## O=C1C(O)=C([C@H]2CC[C@H](c3ccc(Cl)cc3)CC2)C(=O)c2ccccc21 [atovaquone]
[1]; Benzyl Benzoate (neat excipient), organic solvent or mixture, in Benzyl Benzoate, 37° C.
  solubility at 48 h: 14300 µg/mL (≈ 39 mM)
[1]; Capryol (neat excipient), oil or lipid, in Capryol, 37° C.
  solubility at 48 h: 5540 µg/mL (≈ 15.1 mM)
[1]; Isopropyl Palmitate (neat excipient), oil or lipid, in Isopropyl Palmitate, 37° C.
  solubility at 48 h: 2460 µg/mL (≈ 6.71 mM)
[1]; Labrafil (neat excipient), oil or lipid, in Labrafil, 37° C.
  solubility at 48 h: 3980 µg/mL (≈ 10.8 mM)
[1]; Labrasol (neat excipient), organic solvent or mixture, in Labrasol, 37° C.
  solubility at 48 h: 10200 µg/mL (≈ 27.9 mM)
[1]; PEG 200 (neat excipient), organic solvent or mixture, in PEG 200, 37° C.
  solubility at 48 h: 4780 µg/mL (≈ 13 mM)
[1]; PEG 400 (neat excipient), organic solvent or mixture, in PEG 400, 37° C.
  solubility at 48 h: 7220 µg/mL (≈ 19.7 mM)
[1]; Tween 20 (neat excipient), organic solvent or mixture, in Tween 20, 37° C.
  solubility at 48 h: 9690 µg/mL (≈ 26.4 mM)
[2]; Capmul (neat excipient), oil or lipid, in Capmul, 37° C.
  solubility at 48 h: 3470 µg/mL (≈ 9.46 mM)
[2]; Captex (neat excipient), oil or lipid, in Captex, 37° C.
  solubility at 48 h: 4590 µg/mL (≈ 12.5 mM)
[2]; Labrafac (neat excipient), oil or lipid, in Labrafac, 37° C.
  solubility at 48 h: 4080 µg/mL (≈ 11.1 mM)
[2]; Propylene Glycol (neat excipient), organic solvent or mixture, in Proplylene Gycol, 37° C.
  solubility at 48 h: 380 µg/mL (≈ 1.04 mM)
[2]; Tween 80 (neat excipient), organic solvent or mixture, in Tween 80, 37° C.
  solubility at 48 h: 10200 µg/mL (≈ 27.9 mM)

— US20200206139A1, “COMPOSITIONS FOR THE IMPROVED DELIVERY OF DRUGS” (BOARD OF REGENTS, THE UNIVERSITY OF TEXAS SYSTEM, priority 2017, published 2020)
